Experimental data as given in publication PMC9841524, “Structure-Based Rational Design of Small α-Helical Peptides with Broad-Spectrum Activity against Multidrug-Resistant Pathogens” (Journal of Medicinal Chemistry, 2022).
Read-outs that look alike come from different tables or passages of the source. Where no end group is shown, it is not given here.

Tests used:
[1] = CD spectroscopy, helicity; assay type: physicochemical; design: key to Δ[θ]222 induced by TFE / Δ[θ]222 induced by Liposomes: mean residue molar ellipticity, mdeg cm2/(dmol × res); settings: for [θ]222 mean residue molar ellipticity, TFE / [θ]222 mean residue molar ellipticity, Liposomes / [θ]222 mean residue molar ellipticity, PBS: CD at 222 nm, 25 °C; for [θ]222 mean residue molar ellipticity, TFE: aqueous buffer containing 50% TFE; for [θ]222 mean residue molar ellipticity, Liposomes / Δ[θ]222 induced by Liposomes: bacterial membrane mimicking liposomes; for [θ]222 mean residue molar ellipticity, Liposomes: peptide:lipid molar ratio 1:1.05; for [θ]222 mean residue molar ellipticity, PBS: phosphate buffer saline pH 7.0; for Δ[θ]222 induced by TFE / Δ[θ]222 induced by Liposomes: difference to PBS; for Δ[θ]222 induced by TFE: 50% TFE; for % of helicity induced by TFE: increase in molar ellipticity at 222 nm in the presence of 50% TFE; for % of helicity induced by Liposomes: increase in molar ellipticity at 222 nm in the presence of liposomes;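 as to % of helicity induced by Liposomes: share of the total helicity with liposomes gained over the same peptide in PBS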;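 as to % of helicity induced by TFE: share of the total helicity in TFE gained over the same peptide in PBS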
Procedure: The CD spectra of peptides were recorded using a Jasco J-1500 CD spectrophotometer (Jasco, Easton, MD) at 25 °C with a 1 mm path length cell. Wavelengths from 190 to 260 nm were scanned with 1.0 nm step resolution, 100 nm/min speed, 0.4 s response time, and 1 nm bandwidth. CD spectra of the peptides were collected and averaged over three scans in 10 mM sodium phosphate buffer (pH 7.2), helix-inducing solvent 50% TFE (v/v), and bacterial mimic liposomes (75 μM lipid). Spectra were corrected by subtracting a baseline spectrum containing only buffer or 50% TFE or liposomes. The mean residue molar ellipticity was calculated using the formula [drawing 3] where Ab222 is the absorbance observed at 222 nm, MRW is the mean residue molecular weight, C is the concentration in mg/mL, and L is the path length.
Table S1. RP-HPLC retention times and CD spectroscopy analysis of the selected peptides Peptide tR (min)a [θ]222b Δ[θ]222 induced by % of helicity inducedc by PBS TFE Liposomes TFE Liposomes TFE Liposomes […]
atR (min) denotes the retention time at 25°C by RP-HPLC. bThe mean residue molar ellipticity [θ] 222 (mdeg cm2/(dmol × res)) at 222 nm was measured at 25 °C in phosphate buffer saline (PBS, pH 7.0), in aqueous buﬀer containing 50% TFE (TFE), or in presence of bacterial membrane mimicking liposomes (peptide:lipid […]
c% helix induced is the increase in the molar ellipticity at 222 nm (in percentage) of a peptide in the presence of TFE or liposomes.

[2] = test system: P. aeruginosa (ATCC 27883); assay: MIC, standard microtiter dilution (CLSI); assay type: cell-based, Pseudomonas aeruginosa; settings: broth microdilution (CLSI), CAMHB, 37 °C, 24 h
Method in brief: (§1)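 Inoculum 10^6 CFU/mL in CAMHB against 2-fold peptide series; salt variants used 150 mM NaCl, 4.5 mM KCl, 6 mM NH4Cl, 1 mM MgCl2, 2 mM CaCl2, or 25% FBS.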

S. aureus (ATCC 29213) = assay: MIC, standard microtiter dilution (CLSI); assay type: cell-based; settings: broth microdilution (CLSI), CAMHB, 37 °C, 24 h
Method in brief: as §1

[3] = test system: human red blood cells (hRBCs); assay: Hemolytic assay; assay type: cell-based; settings: 2 h, 37 °C
Method in brief: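 Peptides in 2-fold serial dilutions mixed 1:1 with 4% hRBC suspension in PBS and held 2 h at 37 °C unshaken. Hemoglobin release in supernatant read at 567 nm; % hemolysis scaled between PBS (0%) and 1% Triton X-100 (100%).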

E. coli (ATCC 25922) = settings: broth microdilution (CLSI), CAMHB, 37 °C, 24 h
Method in brief: as §1

MRSA (ATCC BAA-1556) = settings: broth microdilution (CLSI), CAMHB, 37 °C, 24 h
Method in brief: as §1

[4] = test system: K. pneumoniae (ATCCBAA-1705); assay: MIC, standard microtiter dilution (CLSI); assay type: cell-based, Klebsiella pneumoniae; settings: broth microdilution (CLSI), CAMHB, 37 °C, 24 h
Method in brief: as §1

[5] = 10^6 CFU/mL, highest MIC of three independent experiments in triplicate
[6] = hRBC suspension 4% in PBS, hemoglobin release at 567 nm, 1% Triton X-100 = 100%
[7] = value in parentheses (μM), hRBC 4% in PBS, 567 nm

RWLRRWLRWWR-NH2 [5d]
[θ]222 mean residue molar ellipticity, TFE [1]: -10148 mdeg cm2/(dmol × res)
[θ]222 mean residue molar ellipticity, Liposomes [1]: -5800 mdeg cm2/(dmol × res)
[θ]222 mean residue molar ellipticity, PBS [1]: -4099 mdeg cm2/(dmol × res)
Δ[θ]222 induced by TFE [1]: -6048
Δ[θ]222 induced by Liposomes [1]: -1700
% of helicity induced by TFE [1]: 59.60%
% of helicity induced by Liposomes [1]: 29.31%
MIC, P. aeruginosa (ATCC 27883) [2, 5]: 50 µg/mL
MIC, P. aeruginosa (ATCC 27883) ([2]; value in parentheses (μM)): 28.26 µM
MIC, S. aureus (ATCC 29213) (S. aureus (ATCC 29213); [5]): 25 µg/mL
MIC, S. aureus (ATCC 29213) (S. aureus (ATCC 29213); value in parentheses (μM)): 14.13 µM
HC50 (concentration at which 50% hemolysis was observed) [3, 6]: 130 µg/mL
HC50 (concentration at which 50% hemolysis was observed) [3, 7]: 73.48 µM
MIC, E. coli (ATCC 25922) (E. coli (ATCC 25922); [5]): 50 µg/mL
MIC, E. coli (ATCC 25922) (E. coli (ATCC 25922); value in parentheses (μM)): 28.26 µM
MIC, MRSA (ATCC BAA-1556) (MRSA (ATCC BAA-1556); [5]): 25 µg/mL
MIC, MRSA (ATCC BAA-1556) (MRSA (ATCC BAA-1556); value in parentheses (μM)): 14.13 µM
MIC, K. pneumoniae (ATCCBAA-1705) [4, 5]: 50 µg/mL
MIC, K. pneumoniae (ATCCBAA-1705) ([4]; value in parentheses (μM)): 28.26 µM

WRRWWRR-NH2 [1c]
[θ]222 mean residue molar ellipticity, TFE [1]: -4646 mdeg cm2/(dmol × res)
[θ]222 mean residue molar ellipticity, Liposomes [1]: -3092 mdeg cm2/(dmol × res)
[θ]222 mean residue molar ellipticity, PBS [1]: -2638 mdeg cm2/(dmol × res)
Δ[θ]222 induced by TFE [1]: -2008
Δ[θ]222 induced by Liposomes [1]: -454
% of helicity induced by TFE [1]: 43.22%
% of helicity induced by Liposomes [1]: 14.68%
MIC, P. aeruginosa (ATCC 27883) [2, 5]: > 100 µg/mL
MIC, P. aeruginosa (ATCC 27883) ([2]; value in parentheses (μM)): > 83.30 µM
MIC, S. aureus (ATCC 29213) (S. aureus (ATCC 29213); [5]): 100 µg/mL
MIC, S. aureus (ATCC 29213) (S. aureus (ATCC 29213); value in parentheses (μM)): 83.30 µM
HC50 (concentration at which 50% hemolysis was observed) [3, 6]: > 500 µg/mL
HC50 (concentration at which 50% hemolysis was observed) [3, 7]: > 416.52 µM
MIC, E. coli (ATCC 25922) (E. coli (ATCC 25922); [5]): > 100 µg/mL
MIC, E. coli (ATCC 25922) (E. coli (ATCC 25922); value in parentheses (μM)): > 83.30 µM
MIC, MRSA (ATCC BAA-1556) (MRSA (ATCC BAA-1556); [5]): 100 µg/mL
MIC, MRSA (ATCC BAA-1556) (MRSA (ATCC BAA-1556); value in parentheses (μM)): 83.30 µM
MIC, K. pneumoniae (ATCCBAA-1705) [4, 5]: > 100 µg/mL
MIC, K. pneumoniae (ATCCBAA-1705) ([4]; value in parentheses (μM)): > 83.30 µM

RWWRRAWAR-NH2 [3e]
[θ]222 mean residue molar ellipticity, TFE [1]: -8008 mdeg cm2/(dmol × res)
[θ]222 mean residue molar ellipticity, Liposomes [1]: -4987 mdeg cm2/(dmol × res)
[θ]222 mean residue molar ellipticity, PBS [1]: -4113 mdeg cm2/(dmol × res)
Δ[θ]222 induced by TFE [1]: -3895
Δ[θ]222 induced by Liposomes [1]: -874
% of helicity induced by TFE [1]: 48.63%
% of helicity induced by Liposomes [1]: 17.53%
MIC, P. aeruginosa (ATCC 27883) [2, 5]: > 100 µg/mL
MIC, P. aeruginosa (ATCC 27883) ([2]; value in parentheses (μM)): > 74.48 µM
MIC, S. aureus (ATCC 29213) (S. aureus (ATCC 29213); [5]): > 100 µg/mL
MIC, S. aureus (ATCC 29213) (S. aureus (ATCC 29213); value in parentheses (μM)): > 74.48 µM
HC50 (concentration at which 50% hemolysis was observed) [3, 6]: > 500 µg/mL
HC50 (concentration at which 50% hemolysis was observed) [3, 7]: > 372.42 µM
MIC, E. coli (ATCC 25922) (E. coli (ATCC 25922); [5]): > 100 µg/mL
MIC, E. coli (ATCC 25922) (E. coli (ATCC 25922); value in parentheses (μM)): > 74.48 µM
MIC, MRSA (ATCC BAA-1556) (MRSA (ATCC BAA-1556); [5]): > 100 µg/mL
MIC, MRSA (ATCC BAA-1556) (MRSA (ATCC BAA-1556); value in parentheses (μM)): > 74.48 µM
MIC, K. pneumoniae (ATCCBAA-1705) [4, 5]: > 100 µg/mL
MIC, K. pneumoniae (ATCCBAA-1705) ([4]; value in parentheses (μM)): > 74.48 µM

RWWRRWAR-NH2 [2a]
[θ]222 mean residue molar ellipticity, TFE [1]: -6217 mdeg cm2/(dmol × res)
[θ]222 mean residue molar ellipticity, Liposomes [1]: -4556 mdeg cm2/(dmol × res)
[θ]222 mean residue molar ellipticity, PBS [1]: -4051 mdeg cm2/(dmol × res)
Δ[θ]222 induced by TFE [1]: -2165
Δ[θ]222 induced by Liposomes [1]: -505
% of helicity induced by TFE [1]: 34.83%
% of helicity induced by Liposomes [1]: 11.08%
MIC, P. aeruginosa (ATCC 27883) [2, 5]: > 100 µg/mL
MIC, P. aeruginosa (ATCC 27883) ([2]; value in parentheses (μM)): > 78.65 µM
MIC, S. aureus (ATCC 29213) (S. aureus (ATCC 29213); [5]): > 100 µg/mL
MIC, S. aureus (ATCC 29213) (S. aureus (ATCC 29213); value in parentheses (μM)): > 78.65 µM
HC50 (concentration at which 50% hemolysis was observed) [3, 6]: > 500 µg/mL
HC50 (concentration at which 50% hemolysis was observed) [3, 7]: > 393.23 µM
MIC, E. coli (ATCC 25922) (E. coli (ATCC 25922); [5]): > 100 µg/mL
MIC, E. coli (ATCC 25922) (E. coli (ATCC 25922); value in parentheses (μM)): > 78.65 µM
MIC, MRSA (ATCC BAA-1556) (MRSA (ATCC BAA-1556); [5]): > 100 µg/mL
MIC, MRSA (ATCC BAA-1556) (MRSA (ATCC BAA-1556); value in parentheses (μM)): > 78.65 µM
MIC, K. pneumoniae (ATCCBAA-1705) [4, 5]: > 100 µg/mL
MIC, K. pneumoniae (ATCCBAA-1705) ([4]; value in parentheses (μM)): > 78.65 µM

RAWRAWWRRA-NH2 [4f]
[θ]222 mean residue molar ellipticity, TFE [1]: -7441 mdeg cm2/(dmol × res)
[θ]222 mean residue molar ellipticity, Liposomes [1]: -4470 mdeg cm2/(dmol × res)
[θ]222 mean residue molar ellipticity, PBS [1]: -3665 mdeg cm2/(dmol × res)
Δ[θ]222 induced by TFE [1]: -3775
Δ[θ]222 induced by Liposomes [1]: -805
% of helicity induced by TFE [1]: 50.73%
% of helicity induced by Liposomes [1]: 18.01%
MIC, P. aeruginosa (ATCC 27883) [2, 5]: > 100 µg/mL
MIC, P. aeruginosa (ATCC 27883) ([2]; value in parentheses (μM)): > 70.74 µM
MIC, S. aureus (ATCC 29213) (S. aureus (ATCC 29213); [5]): > 100 µg/mL
MIC, S. aureus (ATCC 29213) (S. aureus (ATCC 29213); value in parentheses (μM)): > 70.74 µM
HC50 (concentration at which 50% hemolysis was observed) [3, 6]: > 500 µg/mL
HC50 (concentration at which 50% hemolysis was observed) [3, 7]: > 353.69 µM
MIC, E. coli (ATCC 25922) (E. coli (ATCC 25922); [5]): > 100 µg/mL
MIC, E. coli (ATCC 25922) (E. coli (ATCC 25922); value in parentheses (μM)): > 70.74 µM
MIC, MRSA (ATCC BAA-1556) (MRSA (ATCC BAA-1556); [5]): > 100 µg/mL
MIC, MRSA (ATCC BAA-1556) (MRSA (ATCC BAA-1556); value in parentheses (μM)): > 70.74 µM
MIC, K. pneumoniae (ATCCBAA-1705) [4, 5]: > 100 µg/mL
MIC, K. pneumoniae (ATCCBAA-1705) ([4]; value in parentheses (μM)): > 70.74 µM
